Tested on: mature miR-21 in HeLa cells
Assay: qRT-PCR of mature miR-21 in HeLa cells
Assay type: cell-based
Experimental: FIGS. 12A and 12B compare levels of mature miR-21 in HeLa cells, as measured by standard qRT-PCR after 5 days of incubation in the presence of palbociclib and compounds −0045 (sm1), −0050 (sm3) and −0052 (sm5) (FIG. 12A); and levels of mature miR-21 in HeLa cells were measured by qRT-PCR after 4 days of incubation in the presence of palbociclib (a control) and compounds −0045 (sm1), −0050 (sm3) and −0052 (sm5) (FIG. 12B), normalized to miR-21 levels in the absence of any compound. […] The two panels represent independent duplicates of the same experiment.
HeLa cells have relatively high levels of miR-21, and this cell line was used to evaluate whether addition of the molecules would decrease levels of mature miR-21, as expected for inhibition of miR-21 processing. […] In contrast, compounds −0045, −50 and −52, induce an approximately 20% percent decline in levels of mature miR-21 (FIGS. 12A and 12B; the comparison of FIG. 12A and FIG. 12B provides an indication in the uncertainty of the data). miR-21 is very long lived, with a lifetime of approximately 5 days. […] Similar results were obtained at higher numbers of cells/plate (200 k vs at the start of the experiment), but the experiment could not be extended beyond 2 days because of the very high cell density reached. The observed trends were nonetheless in agreement with the experiments conducted at lower cell density.

SMILES | increase in levels of miR-21 (days 4 and 5 of incubation, 20 k vs 200 k cells/plate, normalized to no compound) | decline in levels of mature miR-21 (days 4 and 5 of incubation, normalized to no compound) | reduction of all newly synthesized miR-21 (worked out from the 20% decrease and miR-21 lifetime of approximately 5 days)
CC(=O)c1c(C)c2cnc(Nc3ccc(N4CCNCC4)cn3)nc2n(C2CCCC2)c1=O [Palbociclib, reference compound] | 10-20% |  | 
O=c1[nH]c(Nc2ccc(N3CCNCC3)cn2)nc2ccncc12 [−0050] |  | approximately 20% | about 60%
